Laboratory results: patent EP2782585B1, “ANTIVIRAL FORMULATIONS” (3B Pharmaceuticals, Inc., priority 2011, dated 2013)

What was measured:
HSV-1 = assay: In vitro assay for anti-HSV-1 mRNA activity (QuantiGene Plex 2.0 bDNA) in infected primary endothelial cells; format: cell-based, HSV type 1; conditions: best-fit value, primary Adult Human Dermal Microvascular Endothelial Cells, overnight incubation; for IC50: Human alphaherpesvirus 1, Endothelial cell, HSV-1 mRNA; for LogIC50 / HillSlope: variable slope fit; for LogIC50: concentrations in µM
Procedure: (§1) In vitro assays for anti-HSV-1 and anti-HSV-2 mRNA activity are described in Example 1. Confluent Vero cell monolayers were infected with HSV type 1 or HSV type 2 at a multiplicity of infection of 10 and the resultant virus was used to infect primary Adult Human Dermal Microvascular Endothelial Cells for 1 hour; the supernatant was replaced with fresh culture media and then incubated overnight in the presence of various concentrations of acyclovir, 2-deoxy-D-glucose or an equimolar combination of the two compounds. After overnight incubation, the cells were harvested, lysed, and subjected to QuantiGene Plex 2.0 assay (Panomics, Inc., Fremont, CA) for quantitative assay of HSV-1 and HSV-2 mRNA. The QuantiGene Plex 2.0 assay combines branched DNA (bDNA) signal amplification and multi-analyte profiling beads (xMAP®) technologies to enable the detection and quantitation of multiple mRNA targets simultaneously. Briefly, confluent Vero cell monolayers were infected with HSV type 1 or HSV type 2 at a multiplicity of infection of 10 and the resultant virus was used to infect primary Adult Human Dermal Microvascular Endothelial Cells for 1 hour and then the supernatant was replaced with fresh culture media and then incubated overnight in the presence of various concentrations of acyclovir, 2-deoxy-D-glucose or an equimolar combination of the two compounds. Generally, this assay is considered to be a more sensitive and specific assay (bDNA) for the final readout when compared to an ELISA. The ELISA method while easier, can lack specificity to determine the difference between HSV1 and HSV2. The bDNA assay is a hybridization-based method of target-specific RNA quantitation that amplifies signal rather than target RNA, using labeled DNA probes. The QuantiGene Plex 2.0 system utilizes fluorescent microspheres (Capture Beads) as a support to capture specific RNA molecules. The ability to quantify multiple target-specific RNA molecules in a single sample lies in the design of the Probe Sets. For each RNA molecule of interest, an oligonucleotide Probe Set containing three types of synthetic probes, Capture Extenders (CEs), Label Extenders (LEs), and Blockers (BLs) that hybridize and span contiguous sequences of the target RNA, is provided. The CEs discriminate among the different Capture Beads within the bead array while capturing, via cooperative hybridization, the target RNA. Signal amplification is mediated by DNA amplification molecules that hybridize to the tails of the LEs. Each amplification unit contains multiple hybridization sites for biotinylated Label Probes that bind Streptavidin-conjugated R-Phycoerythrin (SAPE). The resulting fluorescence signal associated with individual Capture Beads is read on a Luminex flow cytometer. Signal is reported as median fluorescence intensity (MFI) and is proportional to the number of target RNA molecules present in the sample. All compounds were run in triplicate for each concentration. Concentrations are expressed in micromolar (µM) concentrations. The IC50 (the drug concentration that reduces the number of virally infected cells by 50%) were determined by plotting the reduction in fluorescence (RLU) versus the drug concentration using Graph Pad Prism software. Specifically, the variable slope model was used to calculate the IC50s with the formula "Y=Bottom + (Top-Bottom)/(1+10^((LogIC50-X)*HillSlope))" using Graph Pad Prism software. The data is shown graphically in Figures 1 and 2. The error bars represent the standard error of the mean (SEM). Table 1. IC50 of Acyclovir and/or 2-Deoxy-D-glucose against HSV-1. […]

HSV-2 = assay: In vitro assay for anti-HSV-2 mRNA activity (QuantiGene Plex 2.0 bDNA) in infected primary endothelial cells; format: cell-based, HSV type 2; conditions: best-fit value, primary Adult Human Dermal Microvascular Endothelial Cells, overnight incubation; for IC50: Human alphaherpesvirus 2, Endothelial cell, HSV-2 mRNA; for LogIC50 / HillSlope: variable slope fit; for LogIC50: concentrations in µM
Procedure: as §1

[1] = local application compared with oral; cited from earlier work

Row | Compound | IC50 (HSV-1) | LogIC50 (HSV-1) | HillSlope (HSV-1) | IC50 (HSV-2) | LogIC50 (HSV-2) | HillSlope (HSV-2) | drug concentration in the skin after local application versus given orally [1]
1 | Nc1nc2c(ncn2COCCO)c(=O)[nH]1 [Acyclovir, 9-(2-hydroxyethoxymethyl)guanine] | 1.78 µM | 0.2509 | -1.108 | 1.91 µM | 0.2805 | -1.113 | 2-3 times lower
2 | O=CC[C@@H](O)[C@H](O)[C@H](O)CO [2 Deoxy D glucose, 2-deoxy-D-glucose] | 20.9 µM | 1.32 | -2.395 | 8 µM | 0.9029 | -3.957 | –
